Here are results for six compounds from ChEMBL document CHEMBL5335781, “Discovery of quinazolin-4-one-based non-covalent inhibitors targeting the severe acute respiratory syndrome coronavirus 2 main protease (SARS-CoV-2 Mpro)” (Eur J Med Chem, 2023).

Series [1] is described as follows: Metabolic stability in human liver microsomes assessed as half life. The series is classed as ADME, Microsome. In general terms: Liver microsomes are vesicles of endoplasmic reticulum, rich in cytochrome P450 enzymes.
For another series, the target named is Cathepsin D (Homo sapiens, UniProt P07339). The experiment in a line: Inhibition of human Cathepsin D using fluorogenic substrate by FRET-based assay.
Chain of Cathepsin D (P07339 65-162 limits assumed): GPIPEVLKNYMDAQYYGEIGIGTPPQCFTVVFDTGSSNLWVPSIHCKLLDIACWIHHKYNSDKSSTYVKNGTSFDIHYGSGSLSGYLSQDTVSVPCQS
Chain of Cathepsin D (P07339 169-412 limits assumed): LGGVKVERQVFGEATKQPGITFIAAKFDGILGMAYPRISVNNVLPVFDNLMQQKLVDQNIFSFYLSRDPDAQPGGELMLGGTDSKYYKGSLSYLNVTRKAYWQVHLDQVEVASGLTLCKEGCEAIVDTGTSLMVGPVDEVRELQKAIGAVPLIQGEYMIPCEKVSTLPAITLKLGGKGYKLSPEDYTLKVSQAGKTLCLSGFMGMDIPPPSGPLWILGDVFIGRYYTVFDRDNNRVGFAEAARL
Series [2] concerns the target Replicase polyprotein 1ab (Severe acute respiratory syndrome coronavirus 2) (UniProt P0DTD1). Particulars: time 30.0 min.
The subject of a further series is Vero C1008. The experiment in a line: Cytotoxicity against african green monkey Vero E6 cells by CCK-8 assay. The format is toxicity, cell-based. Particulars: chlorocebus sabaeus. (In general: Formazan colour is commonly taken as a measure of viable cells.)
The nature of series [3]: Metabolic stability in human liver microsomes assessed as intrinsic clearance. The series is classed as ADME, Microsome.
A further series concerns the target Procathepsin L (Homo sapiens, UniProt P07711). The experiment in a line: Inhibition of human Cathepsin L using fluorogenic substrate by FRET-based assay.
The nature of series [4]: Kinetic solubility in phosphate buffer solution at pH 7.4. The format is physicochemical. The note with it: read-out: Kinetic_solubility.
The target in a further series is Cathepsin B (Homo sapiens, UniProt P07858). The experiment in a line: Inhibition of human Cathepsin B using fluorogenic substrate by FRET-based assay.
Another series concerns the target Prothrombin (Homo sapiens, UniProt P00734). In words: Inhibition of human Thrombin using fluorogenic substrate by FRET-based assay.
Series [5] can be described thus: Plasma protein binding in human assessed as unbound fraction. The series is classed as ADME, cell-free.
In the next series the target is T1, Caspase-2 (Homo sapiens, UniProt P42575).
T1 sequence (P42575 whole entry): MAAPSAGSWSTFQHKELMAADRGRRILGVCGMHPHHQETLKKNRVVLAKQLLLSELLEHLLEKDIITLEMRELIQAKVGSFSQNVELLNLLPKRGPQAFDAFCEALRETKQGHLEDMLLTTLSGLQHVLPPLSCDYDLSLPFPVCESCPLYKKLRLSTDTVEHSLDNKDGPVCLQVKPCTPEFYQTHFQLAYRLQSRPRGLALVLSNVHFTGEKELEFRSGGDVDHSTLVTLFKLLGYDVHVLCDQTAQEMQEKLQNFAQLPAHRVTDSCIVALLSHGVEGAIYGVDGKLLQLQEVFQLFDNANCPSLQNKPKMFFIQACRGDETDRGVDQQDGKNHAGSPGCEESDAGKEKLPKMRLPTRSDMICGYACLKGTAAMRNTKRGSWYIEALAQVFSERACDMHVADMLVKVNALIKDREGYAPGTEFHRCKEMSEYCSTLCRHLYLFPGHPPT
In words: Inhibition of human Caspase 2 using fluorogenic substrate by FRET-based assay.

≈ marks a conversion by molar mass, not a printed value. Calls of active or inactive are those of the source. No cut-off for these calls is given here.

Chain of Procathepsin L (P07711 whole entry): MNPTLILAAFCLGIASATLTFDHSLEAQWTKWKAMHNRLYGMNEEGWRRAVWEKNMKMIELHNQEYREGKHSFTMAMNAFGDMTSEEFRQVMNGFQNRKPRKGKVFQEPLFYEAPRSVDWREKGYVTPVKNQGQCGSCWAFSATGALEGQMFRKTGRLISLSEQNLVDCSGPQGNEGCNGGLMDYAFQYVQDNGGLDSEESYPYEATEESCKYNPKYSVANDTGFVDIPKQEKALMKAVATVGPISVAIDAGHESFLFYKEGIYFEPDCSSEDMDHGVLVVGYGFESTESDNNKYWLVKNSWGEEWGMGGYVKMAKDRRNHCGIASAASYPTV

One may read the IC50 as the point on the concentration scale where inhibition reaches its midpoint. For orientation: CC50 means the concentration at which the toxic effect on the cells reaches its halfway point. Turning to `O=c1c2c(O)c(O)c(O)cc2nc(-c2ccccc2)n1-c1ccccc1`, in series [1], the t1/2 worked out at 12.75 min. Further, the IC50 against Cathepsin D, on Procathepsin L, against Cathepsin B, against Prothrombin and against Caspase-2 was over 10 µM throughout. Moreover, the inhibition entry in series [2] was “Active”. For the same compound, in the series on Vero C1008, the CC50 was over 50 µM. In addition, the CLH in series [3] was determined as 108.68 µL/min/mg. In series [4], the solubility kinetic was 179 µM (≈ 62.1 µg/mL). For the same compound, the Fu in series [5] is 0.7%.
Regarding `Cc1cc(-n2c(CC(C)C)nc3cc(O)c(O)c(O)c3c2=O)ccc1F`, in [2], the inhibition entry was “Active”. In the series on Vero C1008, this compound gave a CC50 of over 50 µM. Also, the Fu in series [5] was found to be 3.17%.
With `O=c1c2c(O)c(O)c(O)cc2nc(Cc2ccccc2)n1-c1ccccc1`, the inhibition result in [2] was “Active”.
On to `O=c1cc(-c2ccccc2)oc2cc(O)c(O)c(O)c12` [BAICALEIN], for which, in series [1], the t1/2 was found to be 4.16 min. In addition, the CC50 in the series on Vero C1008 is over 50 µM. Moreover, the CLH in series [3] was 333.05 µL/min/mg. In addition, in series [4], the solubility kinetic was found to be 112 µM (≈ 30.3 µg/mL). The Fu in series [5] is 0.93%.
Take `CC(C)Cc1nc2cc(O)c(O)c(O)c2c(=O)n1-c1ccccc1`: in series [1], the t1/2 was 20.28 min. Besides, in series [2], the inhibition entry is “Active”. Moreover, the CC50 with Vero C1008 was over 50 µM. Further, in [3], the CLH worked out at 68.34 µL/min/mg. Moreover, in [4], the solubility kinetic amounted to 156 µM (≈ 50.9 µg/mL). Moreover, the Fu in series [5] was found to be 2.61%.
Regarding `O=c1c2c(O)c(O)c(O)cc2nc(-c2ccccc2)n1C1CCCC1`, the inhibition result in series [2] was “Active”.
